US20110124572A1, “SYNDECAN-4 IS A REGULATOR OF RAC1-GTP” (priority 2008, published 2011)
“And” between values parts separate entries of the source, which are not always exact repeats. Equal values may be shown once.

Experiments:
Format in all cases: cell-based, human
MCF7 cells = assay: Neuronal differentiation under serum starvation; settings: 4-5 weeks, bIII-tubulin marker
Protocol: FIG. 8. Neuronal differentiation induced by short Syndecan-4 peptides. MCF7 cells were transfected with wild type syndecan-4 (A) and DEGEpC3 (B), respectively. […] Red: b3-tubulin staining. Blue: Hoechst nuclear staining (A). DEGEpC3: […] was joined to GFP.
Short peptides with the sequence […] (SEQ.ID.NO.: 3) and […] (SEQ.ID.NO.: 4) were tested under serum starvation.

Rac1 = Rac1 GTPase pulldown assay (Rac1-GTP level); settings: wt-, Ser179Ala and Ser179Glu syndecan-4 cell lines, Gö6976
Protocol: Rac1 activity was characterised by applying RAC-activation kit purchased from Millipore (Upstate) and it was used according to the manufacturer's prescription. Briefly, p21-binding domain of PAK-1 was fused to agarose beads, which specifically binds to and precipitates Rac-GTP and Cdc42-GTP from cell lysates. Cells were harvested at 70% confluency of 25 ml flasks. The wild type Syndecan-4, Ser179Ala and Ser179Glu cells were treated for 60 minutes with 1 μM PMA (Sigma-Aldrich), or 500 nM rottlerin (Sigma-Aldrich), or 10 nM Gö6976 (Biosource, Camarillo, Calif., USA). The active Rac1 was detected by Western blotting using mouse anti-Rac1 antibody (Upstate). To test whether GST-Pak1-Rac/Cdc42-binding domain could pull syndecan-4 down, the blot was probed with rabbit polyclonal anti-syndecan-4 or mouse monoclonal anti-GFP antibody.

MCF-7 cells = assay: Cell migration assay (time-lapse) on fibronectin; settings: nt-MCF-7 (non-transfected) cells, PMA stimulation, solitary cell migration
Protocol: The MCF-7 breast adenocarcinoma cells were obtained from ATCC, cultured in DMEM:F12 (Cambrex, Walkersville, Md., USA) supplemented with 10% fetal bovine serum (FBS) (Gibco, Bethesda, Md., USA), otherwise stated. The stably transfected cell lines were propagated in DMEM:F12 medium supplemented with 10% FBS and 200 μg/ml G418 (Cambrex, Walkersville, Md., USA). The cell lines were seeded onto glass coverslips or plastic dishes coated for 2 h with 10 μg/ml fibronectin (Sigma-Aldrich, St. Louis, Mo., USA). Scratch-wound assays were performed on stable transfected Syndecan-4 wild, Ser179Ala and Ser179Glu cells at 80% confluency. The cultures were scratched with a sterile P10 pipette tip 3-4 times in parallel lines. Images were taken 12, 24, 36 and 48 h following wounding.
In the cell migration assay 60% confluent MCF7 cells or the stably transfected lines were stimulated by 1 μM phorbol-12-myristate-13-acetate (PMA; from Sigma-Aldrich St. Louis, Mo., USA), otherwise stated. The images were taken using 10×, 20×0.3 objective at 3-min intervals for 2 h using inverted microscope (Leica) and organized into time-lapse movies in Adobe ImageReady® v. 8.
Results of the previous scratch-wound assay gave a hint that the Ser179Glu cells gained a migratory phenotype. […]

Molecule | neuronal differentiation phenotype (MCF7 cells) | further results
RMKKKDEGEYDLG (Syndecan-4 sequence) [SEQ.ID.NO.: 3] | neuron-like phenotypes | –
MYRMKKKDEGEYDL [DEGEpC3] | neuron-like phenotype | –
RMKKKDEGDYDLG (Syndecan-4 sequence) [SEQ.ID.NO.: 4] | neuron-like phenotypes | –
Cn1c2ccccc2c2c3c(c4c5ccccc5n(CCC#N)c4c21)C(=O)NC3 [Gö6976, reference compound] | – | activated Rac1 level (Rac1): reduced
CCCCCCCCCCCCCC(=O)O[C@@H]1[C@@H](C)[C@@]2(O)[C@@H](C=C(CO)C[C@]3(O)C(=O)C(C)=C[C@@H]23)[C@@H]2C(C)(C)[C@]12OC(C)=O [PMA, phorbol-12-myristate-13-acetate, reference compound] | – | migration velocity (MCF-7 cells): 0.3±0.1 μm/min and 0.3 μm/min
